Key:
Assay in all cases: radiometric filter-binding kinase assay
RPS6KA3 KD1 KD2 (human) = RPS6KA3 KD1 KD2 (human) (UniProt P51812)
CDK2 CCNA2 (human) = CDK2 CCNA2 (human) (UniProt P20248+P24941)
AURKA (human) = AURKA (human) (UniProt O14965)
MAP3K1 (human) = MAP3K1 (human) (UniProt Q13233)
HIPK1 (human) = HIPK1 (human) (UniProt Q86Z02)
RPS6KA5 KD1 KD2 (human) = RPS6KA5 KD1 KD2 (human) (UniProt O75582); conditions: compound 1.0 µM
BRSK2 (human) = BRSK2 (human) (UniProt Q8IWQ3)
[1] = test system: SGK1 (human), O00141 [S422D]
JAK2 JH1 JH2 (human) = JAK2 JH1 JH2 (human) (UniProt O60674)
CLK2 (human) = CLK2 (human) (UniProt P49760)
EPHB4 (human) = EPHB4 (human) (UniProt P54760)
MST4 (human) = MST4 (human) (UniProt Q9P289)
Chain of MST4 (human) (Q9P289 whole entry, looked up): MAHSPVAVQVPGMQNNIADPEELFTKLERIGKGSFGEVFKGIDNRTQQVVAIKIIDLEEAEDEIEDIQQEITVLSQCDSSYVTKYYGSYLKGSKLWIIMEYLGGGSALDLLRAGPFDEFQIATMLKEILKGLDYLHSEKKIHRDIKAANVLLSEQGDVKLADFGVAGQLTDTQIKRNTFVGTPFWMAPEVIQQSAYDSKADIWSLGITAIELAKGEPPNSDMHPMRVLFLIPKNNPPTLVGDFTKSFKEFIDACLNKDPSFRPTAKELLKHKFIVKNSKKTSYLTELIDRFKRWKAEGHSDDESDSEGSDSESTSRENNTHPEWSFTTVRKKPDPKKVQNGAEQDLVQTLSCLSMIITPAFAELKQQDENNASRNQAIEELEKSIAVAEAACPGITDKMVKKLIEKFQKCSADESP

PRKCZ (human) = PRKCZ (human) (UniProt Q05513)
MARK3 (human) = MARK3 (human) (UniProt P27448)
Chain of MARK3 (human) (P27448 whole entry, looked up): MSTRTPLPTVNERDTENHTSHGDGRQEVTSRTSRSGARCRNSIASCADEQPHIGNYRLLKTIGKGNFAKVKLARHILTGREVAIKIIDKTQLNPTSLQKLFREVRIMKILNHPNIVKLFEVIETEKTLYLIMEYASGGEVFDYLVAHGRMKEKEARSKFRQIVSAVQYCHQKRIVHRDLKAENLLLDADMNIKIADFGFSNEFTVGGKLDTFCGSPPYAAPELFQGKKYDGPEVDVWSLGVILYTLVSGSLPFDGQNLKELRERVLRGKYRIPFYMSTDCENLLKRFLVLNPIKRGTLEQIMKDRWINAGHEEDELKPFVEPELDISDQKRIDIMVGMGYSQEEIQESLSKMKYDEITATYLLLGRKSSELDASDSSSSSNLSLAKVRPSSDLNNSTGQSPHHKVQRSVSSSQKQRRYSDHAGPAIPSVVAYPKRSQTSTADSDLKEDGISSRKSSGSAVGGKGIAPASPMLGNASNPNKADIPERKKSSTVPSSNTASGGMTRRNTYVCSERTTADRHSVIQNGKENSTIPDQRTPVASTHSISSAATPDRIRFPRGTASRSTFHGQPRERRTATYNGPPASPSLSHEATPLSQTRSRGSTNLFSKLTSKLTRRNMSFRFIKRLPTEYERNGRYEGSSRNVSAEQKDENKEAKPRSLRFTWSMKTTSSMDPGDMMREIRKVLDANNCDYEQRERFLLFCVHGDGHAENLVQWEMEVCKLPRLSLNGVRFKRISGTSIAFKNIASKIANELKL

STK3 (human) = STK3 (human) (UniProt Q13188)
MARK4 (human) = MARK4 (human) (UniProt Q96L34); conditions: compound 10.0 µM
SRC (human) = SRC (human) (UniProt P12931)
MAP3K5 (human) = MAP3K5 (human) (UniProt Q99683)
NUAK1 (human) = NUAK1 (human) (UniProt O60285)
CHEK1 (human) = CHEK1 (human) (UniProt O14757)
GCK (human) = GCK (human) (UniProt Q12851)
ERBB4 (human) = ERBB4 (human) (UniProt Q15303); conditions: compound 10.0 µM
CHEK2 (human) = CHEK2 (human) (UniProt O96017)
Chain of CHEK2 (human) (O96017 whole entry, looked up): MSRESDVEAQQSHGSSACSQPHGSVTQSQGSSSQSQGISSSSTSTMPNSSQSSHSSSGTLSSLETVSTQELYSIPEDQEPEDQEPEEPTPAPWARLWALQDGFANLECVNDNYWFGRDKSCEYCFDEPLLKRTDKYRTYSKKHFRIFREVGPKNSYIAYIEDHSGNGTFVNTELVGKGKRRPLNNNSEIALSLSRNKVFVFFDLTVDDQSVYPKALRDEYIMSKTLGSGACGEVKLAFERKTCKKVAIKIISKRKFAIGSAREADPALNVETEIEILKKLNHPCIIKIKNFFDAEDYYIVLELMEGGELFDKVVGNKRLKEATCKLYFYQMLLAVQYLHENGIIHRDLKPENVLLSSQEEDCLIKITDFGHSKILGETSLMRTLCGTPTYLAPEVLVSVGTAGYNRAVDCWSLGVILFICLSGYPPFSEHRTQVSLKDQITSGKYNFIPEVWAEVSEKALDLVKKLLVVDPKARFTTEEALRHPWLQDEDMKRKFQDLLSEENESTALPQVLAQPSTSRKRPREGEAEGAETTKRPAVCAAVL

TAOK1 (human) = TAOK1 (human) (UniProt Q7L7X3)
PRKCA (human) = PRKCA (human) (UniProt P17252)
PLK1 (human) = PLK1 (human) (UniProt P53350)
FLT1 (human) = FLT1 (human) (UniProt P17948)
RPS6KA1 KD1 KD2 (human) = RPS6KA1 KD1 KD2 (human) (UniProt Q15418)
Chain of RPS6KA1 KD1 KD2 (human) (Q15418 whole entry, looked up): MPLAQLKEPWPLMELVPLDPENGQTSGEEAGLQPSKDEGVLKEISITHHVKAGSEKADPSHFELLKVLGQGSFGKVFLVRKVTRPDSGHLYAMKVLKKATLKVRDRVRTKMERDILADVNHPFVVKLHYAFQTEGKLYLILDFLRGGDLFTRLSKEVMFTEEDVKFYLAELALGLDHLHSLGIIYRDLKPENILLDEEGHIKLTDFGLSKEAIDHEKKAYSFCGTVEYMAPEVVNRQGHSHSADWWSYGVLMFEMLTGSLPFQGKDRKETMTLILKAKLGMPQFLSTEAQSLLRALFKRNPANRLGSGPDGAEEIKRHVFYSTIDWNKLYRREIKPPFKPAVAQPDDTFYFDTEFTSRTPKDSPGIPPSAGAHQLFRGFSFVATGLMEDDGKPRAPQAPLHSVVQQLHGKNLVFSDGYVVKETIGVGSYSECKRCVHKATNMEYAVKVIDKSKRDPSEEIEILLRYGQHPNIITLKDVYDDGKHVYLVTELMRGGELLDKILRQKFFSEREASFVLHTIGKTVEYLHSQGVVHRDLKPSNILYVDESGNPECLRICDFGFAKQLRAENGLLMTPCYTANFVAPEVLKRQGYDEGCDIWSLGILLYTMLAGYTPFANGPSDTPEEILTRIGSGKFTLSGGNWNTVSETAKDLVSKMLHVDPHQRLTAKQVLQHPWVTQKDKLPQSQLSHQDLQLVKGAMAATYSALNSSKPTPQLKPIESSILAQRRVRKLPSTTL

PAK6 (human) = PAK6 (human) (UniProt Q9NQU5)
EEF2K (human) = EEF2K (human) (UniProt O00418)
MAPK3 (human) = MAPK3 (human) (UniProt P27361)
Chain of MAPK3 (human) (P27361 whole entry, looked up): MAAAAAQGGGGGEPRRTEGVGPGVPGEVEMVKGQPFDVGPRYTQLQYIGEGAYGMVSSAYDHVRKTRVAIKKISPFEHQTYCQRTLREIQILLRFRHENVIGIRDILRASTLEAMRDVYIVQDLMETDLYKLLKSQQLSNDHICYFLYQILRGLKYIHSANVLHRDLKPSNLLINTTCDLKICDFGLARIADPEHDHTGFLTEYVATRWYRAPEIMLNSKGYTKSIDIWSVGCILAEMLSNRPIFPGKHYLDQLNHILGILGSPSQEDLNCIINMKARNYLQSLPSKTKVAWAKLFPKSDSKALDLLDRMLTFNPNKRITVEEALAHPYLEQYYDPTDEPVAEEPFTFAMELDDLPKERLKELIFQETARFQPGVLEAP

DAPK1 (human) = DAPK1 (human) (UniProt P53355)
NTRK1 (human) = NTRK1 (human) (UniProt P04629); conditions: compound 10.0 µM
HIPK3 (human) = HIPK3 (human) (UniProt Q9H422); conditions: compound 10.0 µM
MAPK1 (human) = MAPK1 (human) (UniProt P28482); conditions: compound 10.0 µM

Chain of MAP3K1 (human) (Q13233 whole entry, looked up): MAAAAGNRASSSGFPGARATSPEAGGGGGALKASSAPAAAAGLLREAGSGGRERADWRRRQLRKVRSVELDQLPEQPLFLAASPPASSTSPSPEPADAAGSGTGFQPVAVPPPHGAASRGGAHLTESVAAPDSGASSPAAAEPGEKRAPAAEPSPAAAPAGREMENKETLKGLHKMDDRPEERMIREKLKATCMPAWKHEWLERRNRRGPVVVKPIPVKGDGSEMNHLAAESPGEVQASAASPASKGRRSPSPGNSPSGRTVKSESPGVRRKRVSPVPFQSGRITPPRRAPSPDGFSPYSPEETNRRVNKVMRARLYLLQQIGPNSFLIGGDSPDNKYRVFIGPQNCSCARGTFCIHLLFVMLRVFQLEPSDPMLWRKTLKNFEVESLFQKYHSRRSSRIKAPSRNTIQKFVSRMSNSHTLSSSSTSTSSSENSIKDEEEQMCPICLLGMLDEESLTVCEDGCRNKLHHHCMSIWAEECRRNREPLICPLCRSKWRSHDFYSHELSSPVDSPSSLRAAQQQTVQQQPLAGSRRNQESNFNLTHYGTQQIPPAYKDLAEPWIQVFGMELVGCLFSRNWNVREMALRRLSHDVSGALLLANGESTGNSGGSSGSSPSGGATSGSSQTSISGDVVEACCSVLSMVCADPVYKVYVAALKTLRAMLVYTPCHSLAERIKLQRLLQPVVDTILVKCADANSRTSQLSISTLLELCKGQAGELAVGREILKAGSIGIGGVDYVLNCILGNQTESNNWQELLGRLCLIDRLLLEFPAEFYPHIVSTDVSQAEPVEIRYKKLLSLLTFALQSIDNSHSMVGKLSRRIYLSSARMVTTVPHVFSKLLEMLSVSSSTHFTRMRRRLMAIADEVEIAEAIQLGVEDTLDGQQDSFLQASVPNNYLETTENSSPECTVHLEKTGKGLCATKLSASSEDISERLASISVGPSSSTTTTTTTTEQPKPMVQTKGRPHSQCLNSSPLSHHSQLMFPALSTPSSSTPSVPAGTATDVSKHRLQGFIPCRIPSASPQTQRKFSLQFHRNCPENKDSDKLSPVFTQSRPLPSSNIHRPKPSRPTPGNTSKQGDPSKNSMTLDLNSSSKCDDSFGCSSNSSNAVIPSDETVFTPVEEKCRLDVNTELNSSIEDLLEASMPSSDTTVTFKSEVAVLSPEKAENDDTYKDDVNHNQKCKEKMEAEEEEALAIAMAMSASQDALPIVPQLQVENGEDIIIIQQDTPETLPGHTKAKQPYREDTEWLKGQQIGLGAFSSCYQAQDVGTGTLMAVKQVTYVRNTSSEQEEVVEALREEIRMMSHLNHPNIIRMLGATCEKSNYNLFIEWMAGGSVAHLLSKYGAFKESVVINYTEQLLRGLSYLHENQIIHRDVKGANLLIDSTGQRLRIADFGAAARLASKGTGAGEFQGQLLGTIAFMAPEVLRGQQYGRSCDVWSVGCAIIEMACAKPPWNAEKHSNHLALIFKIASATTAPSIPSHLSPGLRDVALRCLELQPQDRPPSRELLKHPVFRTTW
Chain of BRSK2 (human) (Q8IWQ3 whole entry, looked up): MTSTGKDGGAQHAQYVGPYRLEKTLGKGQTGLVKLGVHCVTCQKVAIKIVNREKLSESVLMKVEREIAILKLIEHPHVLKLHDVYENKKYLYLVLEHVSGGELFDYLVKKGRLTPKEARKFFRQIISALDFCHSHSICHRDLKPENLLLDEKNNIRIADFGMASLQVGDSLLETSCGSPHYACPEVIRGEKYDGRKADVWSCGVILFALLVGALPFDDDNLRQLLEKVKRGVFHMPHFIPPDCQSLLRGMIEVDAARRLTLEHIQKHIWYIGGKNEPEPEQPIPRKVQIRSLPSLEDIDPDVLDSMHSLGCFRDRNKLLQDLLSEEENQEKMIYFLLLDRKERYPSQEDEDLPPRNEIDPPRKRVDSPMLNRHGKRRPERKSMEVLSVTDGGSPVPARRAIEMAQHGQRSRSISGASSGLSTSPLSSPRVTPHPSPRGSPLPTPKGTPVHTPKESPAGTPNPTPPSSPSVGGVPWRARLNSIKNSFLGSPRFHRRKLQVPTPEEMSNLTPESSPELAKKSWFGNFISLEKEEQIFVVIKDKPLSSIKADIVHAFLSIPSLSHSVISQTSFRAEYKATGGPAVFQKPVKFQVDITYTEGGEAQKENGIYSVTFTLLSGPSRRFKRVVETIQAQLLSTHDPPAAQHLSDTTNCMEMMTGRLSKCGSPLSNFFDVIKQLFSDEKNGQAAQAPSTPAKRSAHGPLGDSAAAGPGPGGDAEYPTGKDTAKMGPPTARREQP

Compound: Nc1cccc2c1CN(C1CCC(=O)NC1=O)C2=O (configuration not stated)
- residual activity (RPS6KA3 KD1 KD2 (human); compound 1.0 µM): 93%
- residual activity (RPS6KA3 KD1 KD2 (human); compound 10.0 µM): 101%
- residual activity (CDK2 CCNA2 (human); compound 1.0 µM): 96%
- residual activity (CDK2 CCNA2 (human); compound 10.0 µM): 87%
- residual activity (AURKA (human); compound 1.0 µM): 113%
- residual activity (AURKA (human); compound 10.0 µM): 100%
- residual activity (MAP3K1 (human); compound 1.0 µM): 101%
- residual activity (MAP3K1 (human); compound 10.0 µM): 97%
- residual activity (HIPK1 (human); compound 1.0 µM): 92%
- residual activity (HIPK1 (human); compound 10.0 µM): 101%
- residual activity (RPS6KA5 KD1 KD2 (human)): 91%
- residual activity (BRSK2 (human); compound 1.0 µM): 98%
- residual activity (BRSK2 (human); compound 10.0 µM): 105%
- residual activity ([1]; compound 1.0 µM): 91%
- residual activity (JAK2 JH1 JH2 (human); compound 1.0 µM): 103%
- residual activity (JAK2 JH1 JH2 (human); compound 10.0 µM): 93%
- residual activity (CLK2 (human); compound 1.0 µM): 104%
- residual activity (CLK2 (human); compound 10.0 µM): 98%
- residual activity (EPHB4 (human); compound 1.0 µM): 91%
- residual activity (EPHB4 (human); compound 10.0 µM): 99%
- residual activity (MST4 (human); compound 1.0 µM): 106%
- residual activity (MST4 (human); compound 10.0 µM): 112%
- residual activity (PRKCZ (human); compound 1.0 µM): 100%
- residual activity (PRKCZ (human); compound 10.0 µM): 108%
- residual activity (MARK3 (human); compound 1.0 µM): 91%
- residual activity (MARK3 (human); compound 10.0 µM): 94%
- residual activity (STK3 (human); compound 1.0 µM): 102%
- residual activity (STK3 (human); compound 10.0 µM): 101%
- residual activity (MARK4 (human)): 90%
- residual activity (SRC (human); compound 1.0 µM): 105%
- residual activity (SRC (human); compound 10.0 µM): 114%
- residual activity (MAP3K5 (human); compound 1.0 µM): 102%
- residual activity (MAP3K5 (human); compound 10.0 µM): 101%
- residual activity (NUAK1 (human); compound 1.0 µM): 99%
- residual activity (CHEK1 (human); compound 1.0 µM): 94%
- residual activity (CHEK1 (human); compound 10.0 µM): 82%
- residual activity (GCK (human); compound 1.0 µM): 103%
- residual activity (GCK (human); compound 10.0 µM): 114%
- residual activity (ERBB4 (human)): 106%
- residual activity (CHEK2 (human); compound 1.0 µM): 96%
- residual activity (CHEK2 (human); compound 10.0 µM): 93%
- residual activity (TAOK1 (human); compound 1.0 µM): 106%
- residual activity (TAOK1 (human); compound 10.0 µM): 96%
- residual activity (PRKCA (human); compound 1.0 µM): 107%
- residual activity (PRKCA (human); compound 10.0 µM): 100%
- residual activity (PLK1 (human); compound 1.0 µM): 104%
- residual activity (PLK1 (human); compound 10.0 µM): 96%
- residual activity (FLT1 (human); compound 1.0 µM): 100%
- residual activity (FLT1 (human); compound 10.0 µM): 110%
- residual activity (RPS6KA1 KD1 KD2 (human); compound 1.0 µM): 98%
- residual activity (RPS6KA1 KD1 KD2 (human); compound 10.0 µM): 97%
- residual activity (PAK6 (human); compound 1.0 µM): 102%
- residual activity (PAK6 (human); compound 10.0 µM): 104%
- residual activity (EEF2K (human); compound 1.0 µM): 94%
- residual activity (EEF2K (human); compound 10.0 µM): 82%
- residual activity (MAPK3 (human); compound 1.0 µM): 90%
- residual activity (MAPK3 (human); compound 10.0 µM): 94%
- residual activity (DAPK1 (human); compound 1.0 µM): 95%
- residual activity (DAPK1 (human); compound 10.0 µM): 104%
- residual activity (NTRK1 (human)): 141%

Compound: O=S(=O)(c1ccc(F)c2nonc12)N1CCN(c2ncc(C(F)(F)F)cc2Cl)CC1
- residual activity (RPS6KA3 KD1 KD2 (human); compound 10.0 µM): 86%
- residual activity (CDK2 CCNA2 (human); compound 10.0 µM): 88%
- residual activity (AURKA (human); compound 10.0 µM): 99%
- residual activity (MAP3K1 (human); compound 10.0 µM): 85%
- residual activity (HIPK1 (human); compound 10.0 µM): 94%
- residual activity (BRSK2 (human); compound 10.0 µM): 108%
- residual activity ([1]; compound 10.0 µM): 70%
- residual activity (JAK2 JH1 JH2 (human); compound 10.0 µM): 97%
- residual activity (CLK2 (human); compound 10.0 µM): 95%
- residual activity (HIPK3 (human)): 101%
- residual activity (MST4 (human); compound 10.0 µM): 104%
- residual activity (PRKCZ (human); compound 10.0 µM): 94%
- residual activity (MARK3 (human); compound 10.0 µM): 106%
- residual activity (STK3 (human); compound 10.0 µM): 82%
- residual activity (MARK4 (human)): 85%
- residual activity (SRC (human); compound 10.0 µM): 111%
- residual activity (MAP3K5 (human); compound 10.0 µM): 101%
- residual activity (NUAK1 (human); compound 10.0 µM): 90%
- residual activity (CHEK1 (human); compound 10.0 µM): 96%
- residual activity (GCK (human); compound 10.0 µM): 80%
- residual activity (ERBB4 (human)): 105%
- residual activity (CHEK2 (human); compound 10.0 µM): 93%
- residual activity (MAPK1 (human)): 90%
- residual activity (TAOK1 (human); compound 10.0 µM): 98%
- residual activity (PRKCA (human); compound 10.0 µM): 82%
- residual activity (PLK1 (human); compound 10.0 µM): 99%
- residual activity (FLT1 (human); compound 10.0 µM): 78%
- residual activity (RPS6KA1 KD1 KD2 (human); compound 10.0 µM): 90%
- residual activity (PAK6 (human); compound 10.0 µM): 109%
- residual activity (EEF2K (human); compound 10.0 µM): 79%
- residual activity (MAPK3 (human); compound 10.0 µM): 86%
- residual activity (NTRK1 (human)): 103%

From the kinase profiling compilation of Christmann-Franck et al. (2016)
